The values that follow come from ChEMBL document CHEMBL5214959, “Synthesis of capuramycin and its analogues via a Ferrier-type I reaction and their biological evaluation” (Bioorg Med Chem, 2022).

The structures appear in SMILES notation. In brackets after ≈: the same amount, converted by molar mass.

In experiment [1] the test system is Mycobacterium tuberculosis. The experiment is described as follows: Antibacterial activity against Mycobacterium tuberculosis H37Rv incubated for 14 days measured by microplate reader method. The class given is functional. Conditions: 336 h, time 14 day.
Experiment [2] deals with T1, Phospho-N-acetylmuramoyl-pentapeptide-transferase (Staphylococcus aureus, UniProt P0C1R8).
T1 sequence (P0C1R8 whole entry): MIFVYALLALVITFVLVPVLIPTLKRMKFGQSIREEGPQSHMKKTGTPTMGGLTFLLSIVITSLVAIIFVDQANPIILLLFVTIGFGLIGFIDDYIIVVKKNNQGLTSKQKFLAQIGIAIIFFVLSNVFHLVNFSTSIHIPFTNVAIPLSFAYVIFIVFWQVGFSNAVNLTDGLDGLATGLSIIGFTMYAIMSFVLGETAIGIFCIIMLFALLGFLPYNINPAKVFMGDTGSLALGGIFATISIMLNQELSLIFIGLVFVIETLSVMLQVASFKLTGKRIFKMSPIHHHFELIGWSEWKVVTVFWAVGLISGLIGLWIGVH
Description: Inhibition of Staphylococcus aureus MraY assessed as reduction of dansylated lipid I formation using UDP-MurNAc-dansylpentapeptide as substrate incubated for 3 to 4 hrs by fluorescence based analysis.

The nature of experiment [3]: Antibacterial activity against Mycobacterium abscessus subsp. abscessus ATCC 19977 incubated for 5 days measured by microplate reader method. It counts as functional. Conditions: Mycobacteroides abscessus, ATCC 19977, 120 h; time 5 day.
The subject of experiment [4] is Mycolicibacterium smegmatis. The experiment is described as follows: Antibacterial activity against Mycobacterium smegmatis mc2 155 incubated for 4 days measured by microplate reader method. It counts as functional. The note with it: mc2 155, 96 h, time 4 day.
The nature of experiment [5]: Antibacterial activity against Mycobacterium avium subsp. avium ATCC 25291 incubated for 11 days measured by microplate reader method. It counts as functional. The note with it: ATCC 25291, 264 h, time 11 day.
Experiment [6] is described as follows: Inhibition of bacterial MraY. Further details: species or system Bacteria.
Experiment [7] concerns Mycolicibacterium smegmatis. The experiment is described as follows: Antibacterial activity against Mycobacterium smegmatis. The class given is functional.

As usually defined, the MIC50 is an inhibitory concentration at the 50% level, which refers to growth in some studies and to a panel of isolates in others. Low readings indicate higher susceptibility, high ones lower susceptibility. The term IC50 denotes the midpoint of a concentration-inhibition curve. As a reminder, the MIC is the smallest concentration in the dilution series that meets the test's criterion for growth inhibition. High values mean a less susceptible organism, low ones a more susceptible organism.

Regarding `NC(=O)[C@H](O[C@H]1OC(C(=O)N[C@H]2CCCCNC2=O)=C[C@H](O)[C@@H]1O)[C@H]1O[C@@H](n2ccc(=O)[nH]c2=O)[C@H](O)[C@@H]1O`, the MIC50 was > 32 µg/mL in experiment [1], ≥ 64 µg/mL in experiment [3], 32 µg/mL (≈ 57.6 µM) in experiment [4] and 16 µg/mL (≈ 28.8 µM) in experiment [5]. For the same molecule, the IC50 in experiment [2] was found to be 2 µM.
`CO[C@H]1[C@@H](O)[C@H](n2ccc(=O)[nH]c2=O)O[C@@H]1[C@@H](O[C@H]1OC(C(=O)N[C@H]2CCCCNC2=O)=C[C@H](O)[C@@H]1O)C(N)=O` [CAPURAMYCIN]: the IC50 in experiment [6] is 0.01 µg/mL (≈ 0.0176 µM); in experiment [2], 0.33 µM. This molecule also displayed an MIC in experiment [7] of 6.25 µg/mL (≈ 11 µM). The MIC50 in experiment [1] turned out to be 32 µg/mL (≈ 56.2 µM); in experiment [3], 64 µg/mL (≈ 112 µM); in experiment [4], 32 µg/mL (≈ 56.2 µM); in experiment [5], 8 µg/mL (≈ 14 µM).
Regarding `CO[C@H]1[C@@H](O)[C@H](n2ccc(=O)[nH]c2=O)O[C@@H]1[C@H](C#N)O[C@H]1OC(C(=O)N[C@H]2CCCCNC2=O)=C[C@H](O)[C@@H]1O`, the MIC50 in experiment [1] was > 32 µg/mL; in experiment [3], > 64 µg/mL; in experiment [4], > 32 µg/mL; in experiment [5], > 32 µg/mL. In addition, the IC50 in experiment [2] was 12 µM.
`O=C(N[C@H]1CCCCNC1=O)C1=C[C@H](O)[C@H](O)[C@@H](OC[C@H]2O[C@@H](n3ccc(=O)[nH]c3=O)[C@H](O)[C@@H]2O)O1`: the MIC50 in experiment [1] is > 32 µg/mL; in experiment [3], 32 µg/mL (≈ 62.4 µM); in experiment [4] it was > 32 µg/mL; in experiment [5], > 32 µg/mL. In addition, the IC50 in experiment [2] amounted to 76 µM.
`CO[C@H]1[C@@H](O)[C@H](n2ccc(=O)[nH]c2=O)O[C@@H]1[C@H](O[C@H]1OC(C(=O)N[C@H]2CCCCNC2=O)=C[C@H](O)[C@@H]1O)C(N)=O`: the MIC50 in experiment [1] was > 32 µg/mL; in experiment [3], ≥ 64 µg/mL; in experiment [4] it was > 32 µg/mL; in experiment [5], > 32 µg/mL. Moreover, in experiment [2], the half-inhibitory concentration (IC50) was determined as 10 µM.
